Some test systems named below: A498 renal; HCT-116 colon; IGROV1 ovarian; NCI/ADR-RES ovarian; OVCAR-5 ovarian; PC-3 prostate; SK-MEL-5 melanoma; SNB-19 CNS; SNB-75 CNS; RPMI-8226 leukemia.
Assay in all cases: growth of human tumour cells (NCI), 48 h

SMILES strings stand for the structures.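 Following 48 hours of exposure in 96-well plates, responses at five concentrations were used to interpolate endpoints linearly. GI50: concentration for 50% inhibition of growth. The concentration for full growth arrest is given as TGI.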 Where a SMILES comes first, the peptide text is derived from it. The star is where a group is joined. Boc = CC(C)(C)OC(=O)* Where only a bound is given, the exact number is not on record here.

`Cc1nc2c(Br)cc(Br)cc2c(=O)n1-c1ccccc1N`: the TGI with A498 renal was above 100 µM; with HCT-116 colon, 66.9 µM; in the experiment on IGROV1 ovarian, above 100 µM; in the experiment on NCI/ADR-RES ovarian, above 100 µM; in the experiment with OVCAR-5 ovarian, above 100 µM; in the experiment on PC-3 prostate, above 100 µM. The values for the TGI in the experiment on SK-MEL-5 melanoma, with SNB-19 CNS and in the experiment with SNB-75 CNS were 39 µM, above 100 µM and 87.3 µM, respectively.

In the case of `Cc1nnc2c3c(-c4ccccc4)c(-c4ccccc4)oc3nc(N(C)C)n12`, the TGI was above 100 µM with A498 renal; above 100 µM in the experiment with HCT-116 colon; above 100 µM in the experiment with IGROV1 ovarian; above 100 µM with NCI/ADR-RES ovarian; above 100 µM in the experiment with OVCAR-5 ovarian; 82.3 µM in the experiment with RPMI-8226 leukemia. Besides, the TGI in the experiment on SK-MEL-5 melanoma was above 100 µM; with SNB-19 CNS, above 100 µM; in the experiment on SNB-75 CNS, 72.4 µM.

Turning to `CN(C)c1ccc(/C=C2\N=C(c3ccccc3)N(c3nc4c(Cl)cc(Cl)cc4s3)C2=O)cc1`, the TGI is 92.3 µM with A498 renal; above 100 µM in the experiment with HCT-116 colon; above 100 µM in the experiment with IGROV1 ovarian; above 100 µM in the experiment on NCI/ADR-RES ovarian; above 100 µM in the experiment with OVCAR-5 ovarian; above 100 µM in the experiment with PC-3 prostate. In addition, the TGI in the experiment with RPMI-8226 leukemia was 77.5 µM; in the experiment on SK-MEL-5 melanoma, above 100 µM; with SNB-19 CNS it was above 100 µM.

On to `C=C1CCCCCCCCCCC1S(=O)c1ccccc1` (stereo not drawn), for which the TGI was above 100 µM in the experiment on A498 renal; above 100 µM in the experiment on HCT-116 colon; 33.4 µM with IGROV1 ovarian; above 100 µM in the experiment with NCI/ADR-RES ovarian; above 100 µM in the experiment on OVCAR-5 ovarian; above 100 µM with PC-3 prostate. Besides, the TGI in the experiment on RPMI-8226 leukemia was 54.4 µM; in the experiment on SK-MEL-5 melanoma, above 100 µM; with SNB-19 CNS, above 100 µM.

`COc1cccc(-c2cc(=O)c3cc(C)cnc3[nH]2)c1`: the TGI in the experiment with A498 renal was above 100 µM; in the experiment with HCT-116 colon, above 40 µM; in the experiment with IGROV1 ovarian it was above 100 µM; in the experiment with NCI/ADR-RES ovarian, above 100 µM; with OVCAR-5 ovarian, above 100 µM; in the experiment on PC-3 prostate it was above 100 µM. In addition, the TGI in the experiment on RPMI-8226 leukemia was 29.6 µM; with SK-MEL-5 melanoma, 3.17 µM; with SNB-19 CNS, above 100 µM.

Take `CCOC(=O)/C=C(/C(=O)OCC)n1cc(C)c(=O)n(Cc2cnnn2CCCCOC(C)=O)c1=O`: the TGI in the experiment on HCT-116 colon is 32.8 µM; with IGROV1 ovarian it was 38.3 µM; in the experiment with NCI/ADR-RES ovarian it was 69.3 µM; with OVCAR-5 ovarian, 39.8 µM; in the experiment with PC-3 prostate it was above 100 µM; with RPMI-8226 leukemia, 46.2 µM. The results for the TGI with SK-MEL-5 melanoma, with SNB-19 CNS and in the experiment on SNB-75 CNS were 83.4 µM, above 100 µM and above 100 µM, respectively.

With `Brc1ccc2c(c1)C1=C(CO2)Cc2ccccc2O1`, the TGI in the experiment with A498 renal is 45.2 µM; in the experiment with HCT-116 colon, 29.9 µM; in the experiment on IGROV1 ovarian, 32.7 µM; in the experiment with NCI/ADR-RES ovarian, 58.3 µM; in the experiment with OVCAR-5 ovarian, 34.8 µM; with PC-3 prostate, 32.9 µM. Besides, the TGI with RPMI-8226 leukemia is 61.8 µM; in the experiment on SK-MEL-5 melanoma it was 28.2 µM; in the experiment with SNB-75 CNS, 43 µM.

Consider `CC[C@H]1C=CCC[C@@]2(C[C@@H]3CC[C@@H]4[C@H](C(=O)OCCCCCCCCCCCCCCCC(=O)N(CCCN)C[C@@H](O)CCN)[C@]5(CCC[C@@H](C)O5)NC(=[N+]34)N2)O1`, for which the TGI was 1.74 µM with A498 renal; 1.16 µM with HCT-116 colon; above 3.82 µM in the experiment on IGROV1 ovarian; above 10 µM in the experiment on NCI/ADR-RES ovarian; 4.39 µM with OVCAR-5 ovarian; 1.96 µM with PC-3 prostate. In addition, the TGI turned out to be 0.755 µM in the experiment with RPMI-8226 leukemia, 0.173 µM in the experiment on SK-MEL-5 melanoma and 1.27 µM in the experiment with SNB-19 CNS.

With `CC1CC[C@]2(C(=O)O)CCC3(C)C(=C2[C@H]1C)C=CC1[C@@]2(C)CC[C@H](O)C(C)(C)C2CC[C@]13C` (stereo partly drawn), the TGI was 64.1 µM with HCT-116 colon; 98.2 µM in the experiment with IGROV1 ovarian; above 100 µM in the experiment with NCI/ADR-RES ovarian; above 100 µM in the experiment with OVCAR-5 ovarian; 80.1 µM with PC-3 prostate; above 100 µM with RPMI-8226 leukemia. The TGI in the experiment with SK-MEL-5 melanoma is 56.6 µM; in the experiment on SNB-19 CNS it was above 100 µM; in the experiment on SNB-75 CNS, 73.1 µM.

Consider `CC(NC(=O)C(NC(=O)OC(C)(C)C)C(C)C)C(=O)NCC(=O)O` (stereo not drawn) (Boc-Val-Ala-Gly-OH; configuration not given here), for which the TGI in the experiment with HCT-116 colon, with IGROV1 ovarian, in the experiment with NCI/ADR-RES ovarian, in the experiment with OVCAR-5 ovarian, with PC-3 prostate and in the experiment on RPMI-8226 leukemia was above 100 µM in each case. The TGI with SK-MEL-5 melanoma and with SNB-19 CNS was above 100 µM in each case.

Take `CC(NC(=O)c1ccc(OP(=O)(OCC2=CC(=O)c3ccccc3C2=O)N(C)CCCCCl)cc1)c1ccc(OCC2CCCCC2)c(C(N)=O)c1` (stereo not drawn): the TGI in the experiment on HCT-116 colon is 27.5 µM; in the experiment with IGROV1 ovarian, 21.6 µM; in the experiment on NCI/ADR-RES ovarian, 32.5 µM; in the experiment with OVCAR-5 ovarian, 70.6 µM; with PC-3 prostate, 58.6 µM; in the experiment on RPMI-8226 leukemia, 30.6 µM. Moreover, the TGI in the experiment with SK-MEL-5 melanoma was determined as 2.02 µM; with SNB-19 CNS, 35.1 µM; with SNB-75 CNS it was 19.5 µM.

With `NCCCCCCNc1cc(-c2cccc(OC(F)(F)F)c2)nc2ccc(N3CCCC3)cc12`, the figures for the GI50 with A498 renal, with OVCAR-5 ovarian and with SNB-75 CNS were 1.46 µM, 1.83 µM and 1.57 µM, respectively. The figures for the TGI with A498 renal, in the experiment on OVCAR-5 ovarian and in the experiment with SNB-75 CNS were 2.81 µM, 3.28 µM and 2.94 µM, respectively.

Regarding `O=C(CCCC(=O)N1CC(CCl)c2ccc([N+](=O)[O-])cc21)N1CC(CCl)c2ccc([N+](=O)[O-])cc21` (stereo not drawn), the TGI in the experiment on A498 renal, with HCT-116 colon, with OVCAR-5 ovarian, in the experiment on PC-3 prostate, with RPMI-8226 leukemia and in the experiment with SK-MEL-5 melanoma was above 100 µM in each case. The compound also gave a TGI in the experiment on SNB-19 CNS above 100 µM.

As to `O=S1(=O)c2ccccc2N2CCCc3cc(Cl)cc1c32`, the TGI in the experiment on A498 renal, in the experiment with HCT-116 colon, in the experiment on IGROV1 ovarian, in the experiment on NCI/ADR-RES ovarian, in the experiment with OVCAR-5 ovarian and in the experiment with PC-3 prostate was above 100 µM throughout. Besides, the TGI is above 100 µM with SK-MEL-5 melanoma, above 100 µM in the experiment with SNB-19 CNS and 29.9 µM in the experiment on SNB-75 CNS.

Turning to `CC1(C)CCOC(=O)C(Cl)CC1Cl` (stereo not drawn), the TGI with A498 renal, in the experiment with HCT-116 colon, in the experiment with IGROV1 ovarian, in the experiment with NCI/ADR-RES ovarian, in the experiment on OVCAR-5 ovarian and in the experiment with PC-3 prostate was above 100 µM each time. For the same compound, the TGI with SK-MEL-5 melanoma and in the experiment on SNB-19 CNS was above 100 µM in each case.

(Values after PubChem BioAssay (NCI).)
